Reference: patent US11840547B1, “Nano-sized 4-Bromo-2-[(9H-purin-6-ylimino)-methyl]-phenol imine Pd(II) complex for superior pharmaceutical applications” (KING FAISAL UNIVERSITY, priority 2023, dated 2023)
In brackets after ≈: the same amount, converted by molar mass. Read-outs that look alike come from different tables or passages of the source. Each block holds one molecule with its values, some of them ahead of it.

Key:
[1] = system: breast cancer cell line; test: Antioxidant activity; assay type: cell-based; details: printed as against a breast cancer cell line
[2] = system: breast cancer cell line; test: In vitro anti-cancer activity against breast cancer cell line; assay type: cell-based, human
[3] = system: E. coli bacteria; test: Antimicrobial activity against E. coli (inhibition zone, MIC); assay type: cell-based; details: in vitro
[4] = system: Aspergillus flavus fungi; test: Antifungal activity against Aspergillus flavus (inhibition zone, MIC); assay type: cell-based; details: in vitro
[5] = listed as prepared nano complex

Molecule: 4-Bromo-2-[(9H-purin-6-ylimino)-methyl]-phenol imine Pd(II) complex [prepared complex]
IC50 (antioxidant activity) [1]: 7.5 µg/mL
IC50 (anticancer activity) [2]: 2.2 µg/mL
MIC [3, 5]: 1.00 µg/mL
inhibition zone [3, 5]: 40 mm
MIC ([3]; listed as present complex): about 1.0 μg/ml
inhibition zone ([3]; listed as present complex): about 40 mm
MIC [4]: 1.50 µg/mL
inhibition zone [4]: 30 mm
MIC ([4]; listed as present complex): about 1.50 μg/ml
inhibition zone ([4]; listed as present complex): about 30 mm

Molecule: O=C1O[C@H]([C@@H](O)CO)C(O)=C1O [1-ascorbic acid, reference compound]
IC50 (antioxidant activity) [1]: 45.7 µg/mL (≈ 259 µM)

Molecule: OC(Cn1cncn1)(Cn1cncn1)c1ccc(F)cc1F [Fluconazol, reference compound]
inhibition zone [4]: 24 mm
MIC ([4]; read-out: MIC): 2 µg/mL (≈ 6.53 µM)

The next lines start with results.

MIC ([3]; Escherichia coli, read-out: MIC): 2.5 µg/mL (≈ 6.92 µM)
Molecule: CC1COc2c(N3CCN(C)CC3)c(F)cc3c(=O)c(C(=O)O)cn1c23 (stereo not shown) [Ofloxacin, reference compound]
inhibition zone [3]: 35 mm

IC50 ([2]; Homo sapiens, read-out: IC50 (anticancer activity)): 4.7 µg/mL (≈ 5.8 µM)
Molecule: CC[C@]1(O)C[C@@H]2CN(CCc3c([nH]c4ccccc34)[C@@](C(=O)OC)(c3cc4c(cc3OC)N(C)[C@H]3[C@@](O)(C(=O)OC)[C@H](OC(C)=O)[C@]5(CC)C=CCN6CC[C@]43[C@@H]65)C2)C1 [vinblastine, reference compound]
